Measured values reported in US8106055B2, “Substituted amide compounds” (Gruenenthal GmbH, priority 2007, dated 2012).

Experiments:
[1] = target: T1, serotonin (5-HT) reuptake (Rattus norvegicus, UniProt P31652); assay: Inhibition of serotonin (5HT) reuptake in synaptosomes from rat brain; type: biochemical; settings: test concentration of 10 μM
T1 construct: synaptosomes are freshly isolated from areas of the rat brain; from tissue; host or cells: rat brain synaptosomes (P2 fraction)
Summary of the method: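 Freshly isolated rat brain synaptosomes (P2 fraction) used for 5-HT reuptake. Test compound at 10 μM, activity given as % inhibition.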

[2] = target: T2, human bradykinin 1 receptor (B1R) (Homo sapiens, UniProt P46663); assay: Functional investigation on the human bradykinin 1 receptor (B1R), Ca2+ FLIPR assay in CHO K1 hB1R cells; type: cell-based; settings: B1R antagonism human; test substance 10 μM; Ca2+ FLIPR, CHO K1 hB1R cells
T2 construct: expressed in transfected cells; host or cells: CHO K1 cells
T2 sequence (P46663 1-353): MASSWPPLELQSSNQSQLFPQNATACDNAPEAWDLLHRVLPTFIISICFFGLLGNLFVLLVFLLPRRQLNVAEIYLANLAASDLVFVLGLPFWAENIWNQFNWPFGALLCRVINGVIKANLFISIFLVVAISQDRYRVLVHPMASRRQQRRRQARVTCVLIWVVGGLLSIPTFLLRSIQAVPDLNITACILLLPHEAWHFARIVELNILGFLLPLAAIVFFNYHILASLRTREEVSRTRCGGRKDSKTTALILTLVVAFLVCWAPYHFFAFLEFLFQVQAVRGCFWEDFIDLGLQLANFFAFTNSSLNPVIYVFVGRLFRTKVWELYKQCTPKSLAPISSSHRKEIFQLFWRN
Summary of the method: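 Cells were dye-loaded with Fluo-4 plus probenecid, then test substances added and Ca2+ influx compared with agonist control for % activation. After 10-20 min, EC80 agonist (Lys-Des-Arg9-bradykinin human; Des-Arg9-bradykinin rat) was applied; suppression gave % inhibition and IC50 values.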

T1 sequence (P31652 whole entry): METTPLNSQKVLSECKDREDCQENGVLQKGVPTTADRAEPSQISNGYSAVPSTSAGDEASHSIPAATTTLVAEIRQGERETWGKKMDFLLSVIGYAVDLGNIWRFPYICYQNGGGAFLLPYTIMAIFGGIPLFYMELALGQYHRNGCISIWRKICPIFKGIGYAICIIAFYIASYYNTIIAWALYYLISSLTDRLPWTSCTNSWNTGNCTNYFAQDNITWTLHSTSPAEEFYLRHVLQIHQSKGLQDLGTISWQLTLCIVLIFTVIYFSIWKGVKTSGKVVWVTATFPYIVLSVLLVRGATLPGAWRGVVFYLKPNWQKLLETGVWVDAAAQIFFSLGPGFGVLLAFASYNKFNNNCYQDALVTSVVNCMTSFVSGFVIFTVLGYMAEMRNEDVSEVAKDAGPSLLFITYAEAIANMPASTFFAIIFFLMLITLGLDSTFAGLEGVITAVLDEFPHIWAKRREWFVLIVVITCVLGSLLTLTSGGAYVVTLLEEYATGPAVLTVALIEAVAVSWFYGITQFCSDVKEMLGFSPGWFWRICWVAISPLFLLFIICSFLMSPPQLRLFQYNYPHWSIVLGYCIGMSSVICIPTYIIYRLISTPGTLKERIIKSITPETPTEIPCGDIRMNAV

Compound | 5-HT (inhibition of reuptake of serotonin, % inhibition) [1] | B1R Ant. h [10 μM] % Inhibition [2]
COc1cc(C)c(S(=O)(=O)N2CCC(OCC(=O)NC3CCC(C(c4ccc(F)cc4)N(C)C)CC3)C2)c(C)c1 (stereo not shown) [Example 441] | 99% | 94%
COc1cc(C)c(S(=O)(=O)N2CCN(CCOCC(=O)NCCC3CCC(C(c4ccc(F)cc4)N(C)C)CC3)CC2)c(C)c1C (stereo not shown) [Example 387] | 95% | 75%
CN(C)C(c1ccc(F)cc1)C1CCC(CNC(=O)COCCN(C)S(=O)(=O)c2ccc(OC(F)(F)F)cc2)CC1 (stereo not shown) [Example 439] | 94% | 44%
CN(C)C(c1ccc(F)cc1)C1CCC(NC(=O)COC2CCN(S(=O)(=O)c3ccccc3)CC2)CC1 (stereo not shown) [Example 408] | 93% | −16%
COc1ccc(S(=O)(=O)N(C)CCOCC(=O)NCC2CCC(C(c3ccc(Cl)cc3)N(C)C)CC2)cc1OC (stereo not shown) [Example 379] | 81% | −5%
CN(C)C(c1ccc(F)cc1)C1CCC(CCNC(=O)COCCN(C)S(=O)(=O)c2cccc(C(F)(F)F)c2)CC1 (stereo not shown) [Example 368] | 95% | 39%
CN(C)C(c1ccc(F)cc1)C1CCC(CNC(=O)COCCN2CCN(S(=O)(=O)c3ccccc3)CC2)CC1 (stereo not shown) [Example 433] | 95% | −4%
Cc1ccc(S(=O)(=O)N2CCC(OCC(=O)NCC3CCC(C(c4ccc(F)cc4)N(C)C)CC3)C2)cc1 (stereo not shown) [Example 447] | 95% | 24%
CN(C)C(c1ccc(F)cc1)C1CCC(NC(=O)COCCN(C)S(=O)(=O)c2c(Cl)cc(Cl)cc2Cl)CC1 (stereo not shown) [Example 382] | 96% | 103%
CN(C)C(c1ccc(F)cc1)C1CCC(CCNC(=O)COCCN(C)S(=O)(=O)c2ccc(Cl)cc2)CC1 (stereo not shown) [Example 377] | 88% | 28%
COc1cc(C)c(S(=O)(=O)N2CCC(OCC(=O)NCCC3CCC(C(c4ccc(Cl)cc4)N(C)C)CC3)C2)c(C)c1C (stereo not shown) [Example 412] | 95% | 40%
CN(C)C(c1ccc(Cl)cc1)C1CCC(CCNC(=O)COC2CCN(S(=O)(=O)c3ccccc3)C2)CC1 (stereo not shown) [Example 375] | 88% | 2%
COc1cc(C)c(S(=O)(=O)N(C)CCOCC(=O)NC2CCC(C(c3ccc(F)cc3)N(C)C)CC2)c(C)c1 (stereo not shown) [Example 422] | 81% | 104%
CN(C)C(c1ccc(Cl)cc1)C1CCC(CCNC(=O)COC2CCN(S(=O)(=O)c3ccc(F)cc3)C2)CC1 (stereo not shown) [Example 440] | 95% | 8%
Cc1cc(C)c(S(=O)(=O)N(C)CCOCC(=O)NCCC2CCC(C(c3ccc(Cl)cc3)N(C)C)CC2)c(C)c1 (stereo not shown) [Example 416] | 103% | 104%
CN(C)C(c1ccc(Cl)cc1)C1CCC(CCNC(=O)COCCN(Cc2ccccc2)S(=O)(=O)c2ccccc2)CC1 (stereo not shown) [Example 426] | 95% | −7%
COc1ccc(S(=O)(=O)N2Cc3ccccc3CC2COCC(=O)NCCC2CCC(C(c3ccc(Cl)cc3)N(C)C)CC2)cc1 (stereo not shown) [Example 374] | 90% | 18%
COc1ccc(S(=O)(=O)N2CCCCC2COCC(=O)NCC2CCC(C(c3ccc(F)cc3)N(C)C)CC2)c(OC)c1 (stereo not shown) [Example 405] | 89% | 5%
COc1cc(C)c(S(=O)(=O)N(C)CCOCC(=O)NCCC2CCC(C(c3ccc(Cl)cc3)N(C)C)CC2)c(C)c1 (stereo not shown) [Example 378] | 83% | 104%

Compound | 5-HT (inhibition of reuptake of serotonin, % inhibition) [1] | B1R Ant. h [10 μM] % Inhibition [2]
COc1ccc(S(=O)(=O)N2Cc3ccccc3CC2COCC(=O)NCCC2CCC(C(c3ccc(F)cc3)N(C)C)CC2)cc1 (stereo not shown) [Example 389] | 93% | 36%
COc1cc(C)c(S(=O)(=O)N2CCN(CCOCC(=O)NCC3CCC(C(c4ccc(Cl)cc4)N(C)C)CC3)CC2)c(C)c1C (stereo not shown) [Example 429] | 95% | 75%
CN(C)C(c1ccc(F)cc1)C1CCC(CNC(=O)COCCN(C)S(=O)(=O)c2ccc(F)cc2)CC1 (stereo not shown) [Example 400] | 103% | 3%
COc1cc(C)c(S(=O)(=O)N(CCOCC(=O)NC2CCC(C(c3cccc(F)c3)N(C)C)CC2)Cc2ccccc2)c(C)c1C (stereo not shown) [Example 419] | 76% | 37%
CCN(CCOCC(=O)NCCC1CCC(C(c2ccc(Cl)cc2)N(C)C)CC1)S(=O)(=O)c1c(C)cc(OC)c(C)c1C (stereo not shown) [Example 434] | 82% | 47%
COc1ccc(S(=O)(=O)N2CCCCC2CCOCC(=O)NCCC2CCC(C(c3ccc(F)cc3)N(C)C)CC2)cc1 (stereo not shown) [Example 398] | 97% | 80%
COc1cc(C)c(S(=O)(=O)N2CCC(CCOCC(=O)NCCC3CCC(C(c4cccc(F)c4)N(C)C)CC3)CC2)c(C)c1C (stereo not shown) [Example 397] | 93% | 2%
COc1cc(C)c(S(=O)(=O)N2CCC(OCC(=O)NC3CCC(C(c4ccc(F)cc4)N(C)C)CC3)C2)c(C)c1C (stereo not shown) [Example 365] | 90% | 48%
CCN(CCOCC(=O)NC1CCC(C(c2ccc(F)cc2)N(C)C)CC1)S(=O)(=O)c1c(C)cc(OC)c(C)c1C (stereo not shown) [Example 396] | 90% | 70%
CN(C)C(c1ccc(Cl)cc1)C1CCC(CCNC(=O)COCC2CCCN(S(=O)(=O)c3ccccc3)C2)CC1 (stereo not shown) [Example 425] | 97% | 12%
COc1cc(C)c(S(=O)(=O)N2CCCC(OCC(=O)NCC3CCC(C(c4ccc(F)cc4)N(C)C)CC3)C2)c(C)c1C (stereo not shown) [Example 418] | 98% | 53%
COc1cc(C)c(S(=O)(=O)N2CCCC(OCC(=O)NCC3CCC(C(c4ccc(Cl)cc4)N(C)C)CC3)C2)c(C)c1C (stereo not shown) [Example 449] | 73% | 25%
CN(C)C(c1ccc(Cl)cc1)C1CCC(CNC(=O)COCCN(C)S(=O)(=O)c2ccc(OC(F)(F)F)cc2)CC1 (stereo not shown) [Example 411] | 91% | 41%
COc1cc(C)c(S(=O)(=O)N(CCOCC(=O)NCCC2CCC(C(c3cccc(F)c3)N(C)C)CC2)Cc2ccccc2)c(C)c1C (stereo not shown) [Example 436] | 88% | 8%
CCN(CCOCC(=O)NCCC1CCC(C(c2ccc(F)cc2)N(C)C)CC1)S(=O)(=O)c1c(C)cc(OC)c(C)c1C (stereo not shown) [Example 413] | 96% | 96%
COc1ccc(S(=O)(=O)N(C)CCOCC(=O)NC2CCC(C(c3cccc(F)c3)N(C)C)CC2)cc1OC (stereo not shown) [Example 401] | 99% | −19%
CN(C)C(c1ccc(F)cc1)C1CCC(NC(=O)COCCN(C)S(=O)(=O)c2c(Cl)cccc2Cl)CC1 (stereo not shown) [Example 363] | 73% | 80%
CN(C)C(c1cccc(F)c1)C1CCC(NC(=O)COCCN2CCN(S(=O)(=O)c3ccccc3)CC2)CC1 (stereo not shown) [Example 364] | 95% | 0%
Cc1ccc(S(=O)(=O)N(C)CCOCC(=O)NC2CCC(C(c3ccc(F)cc3)N(C)C)CC2)cc1 (stereo not shown) [Example 448] | 94% | 0%
